# In a melting point compilation (Tetko et al.; mined from patent text by program, amines drawn as free bases though some values may be those of a salt):
row,Structure (SMILES),melting point [°C]
1,O=C(Nc1ccccc1N1CCc2ccccc21)c1ccccc1,73 to 76
2,O=C(O)/C=C\C=C(c1ccccc1)c1ccccc1,175 to 176
3,CC(=O)NCc1ccc(C(C)O)cc1 (configuration not stated),61 to 62
4,CCNc1nc(-c2ccc(NC(=O)OCc3cccnc3)cc2)ccc1C(=O)NC,234 to 235
5,CN(C)CC(=O)NN=Cc1c(-c2ccccc2)nn2ccccc12,172 to 173
6,CC1(C)OC[C@@H](CNc2ccc3cc(OCC4CC4)ccc3c2)O1,108 to 109
7,COc1ccc(N2CCN(c3ccc(N)cc3)CC2)cc1,192
8,N#Cc1ncccc1Oc1ccccc1Cl,90 to 92
9,Fc1cc2ccc(CBr)nc2cc1F,113 to 115
10,CC(=O)c1c(-c2ccccc2)sc(-c2ccncc2)c1C,111 to 112
11,Cc1cc(C)cc(-c2nnc(C#N)o2)c1,127
12,CC(C)(C)OC(=O)N1CCC[C@H]1C(=O)OCCCNc1cccc2c1C(=O)c1ccccc1C2=O,121
13,O=C(Nc1cccc([N+](=O)[O-])c1)C(F)(F)C(F)(F)F,111 to 113
14,O=C(Nc1ccc(C(=O)N2Cc3ccccc3Cc3ccccc32)cc1)C1CC=CCC1 (configuration not stated),234 to 236
15,Cc1nc(-c2ccc(OC(C)C)cc2)sc1C(=O)O,186 to 188
16,CCCCCCCCCCCCS(=O)(=O)N[C@H]1CCCNC(=O)C1,100 to 101
17,CC(=O)c1cccc(C(=O)NC(Nc2c(Nc3cccnc3)c(=O)c2=O)C(C)(C)C)c1 (configuration not stated),218 to 219
18,Cc1cnc2c(C#N)c(C)nn2c1-c1ccccc1,208 to 210
19,CCCCCCCOc1ccc(C(=O)Nc2ccccc2OCc2nnn[nH]2)cc1,148 to 150
20,Cc1ccc(C(=O)Nc2ccc(C=O)c(C(F)(F)F)c2)cc1Br,194 to 195
21,COC(=O)[C@H]1[C@@H]2CC[C@@H](C2)[C@@H]1C(=O)O,59 to 60

row,Structure (SMILES),melting point [°C]
1,CCNc1nc(OCc2ccccc2)nc2c1ncn2C1OC(CO)C(O)C1O (configuration not stated),170 to 171
2,N#Cc1cccc(-c2nc(-c3ccccn3)no2)c1,148 to 149
3,COC(=O)c1ccccc1Oc1nc(Oc2ccccc2C(=O)OC)nc(Oc2ccccc2C(=O)OC)n1,58 to 63
4,COc1ccc(Cn2c(=O)cc(-c3nccn3C)c3cnc(SC)nc32)cc1Cl,218 to 220
5,[N-]=[N+]=NCc1cccnc1,40 to 43
6,NC(CCNc1ccc(C(O)(C(F)(F)F)C(F)(F)F)cc1)c1ccc(F)cc1 (configuration not stated),136 to 137
7,CCCCc1oc2ccccc2c1C(=O)N(Cc1ccccc1)Cc1ccc(-c2ccc(OC)c(Br)c2)cc1,145 to 148
8,CC(C)OC1(C(=O)O)C=C(Cl)C=C(Cl)C1 (configuration not stated),140 to 141
9,CC(=O)OC1CSC(Oc2cccc(-c3ccc(F)nc3)c2)C(OC(C)=O)C1OC(C)=O (configuration not stated),115
10,C=CCn1c(C)nc2c3c(c(C(=O)OC)cc21)CCC1(Cc2ccccc2C1)N3,142
11,CCOC(=O)c1c[nH]c(Cc2ccc(OC)cc2)n1,119 to 121
12,CCOC(=O)c1cc(-c2ccc(OCc3ccccc3)cc2)n[nH]1,160 to 170
13,CCCCc1cc(-c2nnn[nH]2)ncc1C(=O)O,> 300
14,CCN(CC)c1ccc(-c2cc(-c3ccc(C(=O)O)cc3)ccc2CCCNC2CC2)cc1C(C)(C)C,189
15,Cc1ccccc1C(NCC(=O)Nc1c(C(C)C)cccc1C(C)C)c1ccccc1 (configuration not stated),163 to 164
16,O=C(O)c1ccc(-c2nc(NCc3ccc4c(c3)OCO4)c3c4c(oc3n2)CCCC4)cc1,205
17,Cc1ccccc1C(=O)CC(C#N)C#N,92 to 93
18,O[C@@H]1[C@H](O)[C@H](O)CO[C@H]1n1c(Br)nc2ccc(Cl)cc21,100
19,O=C(Oc1ccc(Cl)cc1)C1CCCc2ccc([N+](=O)[O-])cc21 (configuration not stated),108 to 109
20,COc1ccc2c(Cc3c(Cl)cncc3Cl)nnc(Oc3ccccc3)c2c1,130 to 132
21,O=C(CF)CS(=O)(=O)C(c1ccc(Cl)cc1)c1ccc(Cl)cc1,55 to 58

row,Structure (SMILES),melting point [°C]
1,Cc1c(SCCN2CCCCC2)ccnc1CSc1nc2ccccc2[nH]1,138 to 140
2,CC(Oc1ncn(-c2cccc(Br)c2)n1)C(=O)O (configuration not stated),198 to 200
3,COc1cc(Cc2cnc(N)nc2N)cc(OC)c1CN,176 to 178
4,CC(=O)N(C)c1cc(-c2ccnc3c(C(=O)c4cccs4)cnn23)ccc1F,165 to 167
5,CCCC(=O)Nc1cc([N+](=O)[O-])c(Sc2cccc3cnccc23)cc1N,191 to 192
6,CON1C(C)(C)CC(OC(=O)c2ccc3nn(-c4cc(C(C)(C)CC(C)(C)C)cc(C(C)(C)c5ccccc5)c4O)nc3c2)CC1(C)C,84 to 90
7,CCCNC(=S)Nc1nc(OCc2cccc(C#N)c2)ncc1F,163 to 165
8,COc1cc(C(C)=O)ccc1OCCN1C2CCC1CC(c1n[nH]c3ccccc13)C2 (configuration not stated),154 to 155
9,Cn1c(=O)c2c(nc3n2CC(O)CN3)n(C)c1=O (configuration not stated),360
10,CCN(CC)c1c(Cl)cc(C(O)CNC(C)(C)C)cc1Cl (configuration not stated),93 to 96
11,CCNC(=O)c1cccc2[nH][nH]c(=O)c12,209 to 210
12,CCN(CC)CCNC(=O)c1cnc2cc(I)ccc2n1,60 to 62
13,CSCCC1N=C(c2ccccc2)c2cc(Cl)ccc2NC1=O (configuration not stated),184
14,Cc1c(C)c2c(c(C)c1N)CC(C)(CSCCC(=O)O)O2 (configuration not stated),139 to 140
15,Brc1ccc(N2CCN(CCCc3[nH]nc4c3CCCC4)CC2)cc1,145 to 147
16,Oc1ccccc1-c1nc(-c2ccccc2O)n(CC(F)(F)F)n1,154 to 156
17,COc1nc2cc(C)c(C)c(NS(C)(=O)=O)c2nc1OC,219
18,CCOC(=O)c1ccc(-c2c(Cl)c(CN3C(=O)CCC3=O)nc3sc4c(c23)CCN(C(=O)OCc2ccccc2)C4)cc1,198 to 199
19,O=CN(O)C(CCCO)CS(=O)(=O)c1ccc(-c2ccc(Cl)cc2)cc1 (configuration not stated),160

# Second part, the molecule after the results:
row,melting point [°C],Structure (SMILES)
1,33 to 35,CCOC(=O)CCCCCOc1ccc(C=O)cc1
2,108,CC1(C)Cc2cc([N+](=O)[O-])cc(OCC3CO3)c2O1 (configuration not stated)
3,261 to 262,CS(=O)c1ccc(-c2nc(-c3nc4ccccc4c(=O)[nH]3)ccc2OCCO)cc1 (configuration not stated)
4,198,COc1cc(OC)nc(-n2nc(SC)n(N)c2=O)n1
5,65.5,Cc1cc(C)c(C)c(C(=O)CCl)c1C
6,215 to 217,O=c1[nH]c2ccc(C(F)(F)F)cc2c(-c2cc(Cl)ccc2O)c1NCc1ccccc1
7,87.8 to 88.7,CSc1cc2ccc(-c3ccccc3)cc2cc1OS(=O)(=O)C(F)(F)F
8,222 to 224,Cc1ccc(N2C(=O)C(O)=C(C(=O)c3ccc(C(C)C)cc3)C2c2ccc(O)cc2)nn1 (configuration not stated)
9,84 to 86,CCCOc1ccc([N+](=O)[O-])cc1[N+](=O)[O-]
10,97 to 98,CCOC(=O)Cc1cccc2c(-c3ccccc3)onc12
11,109,C[C@@H](S[C@H]1CO[C@H](c2ccc(C(=O)Nc3ccc(C#N)c4ccccc34)cc2)OC1)[C@](O)(Cn1cncn1)c1ccc(F)cc1F
12,239 to 240,O=C1CN(c2ccc(Cl)cc2)C(=O)N1S(=O)(=O)c1ccc(Cl)cc1
13,157 to 158,COc1c(C)c2c(c(O)c1C/C=C(\C)C1CCCC1C(=O)O)C(=O)OC2 (configuration not stated)
14,92 to 93,NCCCCOc1cccc(CN2CCCCC2)c1
15,105 to 106,C(#CCN(Cc1ccccc1)Cc1ccccc1)CN(Cc1ccccc1)Cc1ccccc1
16,147 to 149,Cn1nnnc1S(=O)CCCCS(=O)(=O)c1nnnn1C (configuration not stated)
17,56 to 57,Fc1cc(Cl)c(OC(F)F)cc1-c1ncnc(C(F)F)c1Cl
18,162 to 164,O=C(NC[C@H]1CN(c2cc(F)c(N3CCC(n4cnnn4)CC3)c(F)c2)C(=O)O1)C1CC1
19,95 to 98,CC(C)(C)CNc1cc(Cl)nc(NCC(C)(C)C)n1
20,108 to 111,COCCOc1ccc(CCl)c(Oc2ncc(C(F)(F)F)cc2Cl)c1
21,170,COc1cccc(C2(Cl)C(=O)Nc3ccc(Cl)cc32)c1 (configuration not stated)

row,melting point [°C],Structure (SMILES)
1,> 200,CCOC(=O)c1ccc(NCc2ccc3ccc4nc(C)[nH]c(=O)c4c3c2)cc1F
2,105,Cc1ccc(C23CCC(Cl)(CC2)CC3)cc1
3,179 to 180,O=C1CC(c2cccc(-n3cnnn3)c2)=Nc2ccc(-c3ccccc3F)cc2N1
4,189 to 190,OCCN1CCN(c2ccc(Nc3ncc4ccc(-c5cccnc5)n4n3)cc2)CC1
5,178 to 180,COC(=O)c1cc(NN=C(c2ccccc2)c2ccccc2)c(C#N)s1
6,115 to 116,NCCCCCNc1cccc2c1C(=O)c1c(NCCCCCN)cccc1C2=O
7,154 to 156,Nc1c(CC(=O)O)cc(Cl)cc1Oc1ccccc1F
8,98 to 99.5,CSC(C(=O)c1cc(-c2ccccc2)on1)N(C)C (configuration not stated)
9,135 to 137,CN1CCCN(Cc2nc(-c3ccc4c(c3)Nc3ccccc3S4)cs2)CC1
10,100 to 102,COc1ccc(CCOc2cccc(-c3cccc(C(=O)O)c3)c2)cc1OC
11,75 to 77,OCCc1nccn1CCCCc1ccc(O)cc1
12,200 to 201,C/C(=N\O)c1ccc(SSc2ccc(/C(C)=N/O)cn2)nc1
13,37.2 to 38.4,CCOC(=O)CCCOc1ccccc1O
14,109 to 113,CC1=NN(c2ccc(Cl)cc2)C(=O)C1C(=O)Nc1ccc(F)cc1 (configuration not stated)
15,110 to 111,C=CCOc1ccc(Br)cc1C(C)=NO
16,145 to 148,OC1(Cn2cncn2)CCCC1Cc1ccc(-c2ccccc2)cc1 (configuration not stated)
17,175 to 178,O=C(CBr)Nc1ccc([N+](=O)[O-])cc1
18,115 to 117,C(=C\c1nc(COc2ccc(CCCn3cnc4ccccc43)cc2)co1)/c1ccccc1
19,276 to 279,O=c1c2c(Cc3ccccc3)n[nH]c2c2cccnc2n1-c1cccc([N+](=O)[O-])c1
20,140 to 142,Nc1ncc(Sc2cccnc2)s1
